In general, IC50 refers to the concentration that gives 50% inhibition.

Our source for the POC and IC50 values is patent US10689377B2 (Mirati Therapeutics, Inc., priority 2017, dated 2020).

In test [1] the target is KRas G12C (Homo sapiens, UniProt P01116, C118S/C51S/C80L/G12C). Description: KRas G12C Modification Assay (LCMS detection of covalent adduct). The class given is binding. Summed up: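 Intact protein analysed by LC/MS with deconvolution; unmodified protein signal normalized to no-compound control and reported as percent of control (POC).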
In test [2] the target is KRas G12C (Homo sapiens, UniProt P01116, G12C). Description: Cellular inhibition of KRas G12C measured by Phospho-ERK in NCI-H358 cells. It counts as cell-based. The conditions noted are these: pERK(Thr202/Tyr204) normalized with GAPDH, NCI-H358 cells, 3 hours; read-out: IC50. The essentials:
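Ratio of phospho-ERK(Thr202/Tyr204) to GAPDH, read by near-infrared secondary antibodies on fixed, permeabilised NCI-H358 cells, expressed relative to DMSO control. Compound exposure was 3 h at 0.5% DMSO. IC50 values come from 4-parameter curve fits.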

Where [3] appears, read: normalized percent of control, 5 μM concentration for 3 hours.

For `C=C(F)C(=O)N1CCN(c2nc(OC[C@@H]3CC(F)(F)CN3C)nc3c2CCN(c2cccc4cccc(C)c24)C3)C[C@@H]1CC#N` [Example 530, 2-((S)-4-(2-(((S)-4,4-difluoro-1-methylpyrrolidin-2-yl)methoxy)-7-(8-methylnaphthalen-1-yl)-5,6,7,8-tetrahydropyrido[3,4-d]pyrimidin-4-yl)-1-(2-fluoroacryloyl)piperazin-2-yl)acetonitrile], the POC result on KRas G12C [1] (setting [3]) is on record as “C (“C”>50% POC)”. For the same compound, at KRas G12C [2], the IC50 fell in the range of 0.0001 to 1 µM.
In the same order, the values of `C=C(F)C(=O)N1CCN(c2nc(OC[C@@H]3CCCN3C)nc3c2CCN(c2cccc4cccc(C(C)C)c24)C3)C[C@@H]1CC#N` [Example 591] are “B (“B”>25% POC-≤50% POC)” and greater than 1 µM.
In the same order, the values of `C=CC(=O)N1CCN(c2nc(O[C@H](C)CN(C)CC)nc3c2CCN(c2cc(O)cc4ccccc24)C3)CC1` [Example 131, 1-[4-[2-[(1R)-2-[ethyl(methyl)amino]-1-methyl-ethoxy]-7-(3-hydroxy-1-naphthyl)-6,8-dihydro-5H-pyrido[3,4-d]pyrimidin-4-yl]piperazin-1-yl]prop-2-en-1-one] are “C (“C”>50% POC)” and 0.0001 to 1 µM.
For `C=C(F)C(=O)N1CCN(c2nc(OC[C@@H]3CCC(=O)N3C)nc3c2CCN(c2cccc4cccc(Cl)c24)C3)C[C@@H]1CC#N` [Example 572, 2-[(2S)-4-[7-(8-Chloro-1-naphthyl)-2-[[(2S)-1-methyl-5-oxo-pyrrolidin-2-yl]methoxy]-6,8-dihydro-5H-pyrido [3,4-d]pyrimidin-4-yl]-1-(2-fluoroprop-2-enoyl)piperazin-2-yl] acetonitrile], at KRas G12C [1] (setting [3]), the POC entry is on record as “C (“C”>50% POC)”. Besides, on KRas G12C [2], the IC50 was greater than 1 µM.
Turning to `C=C(F)C(=O)N1CCN(c2nc(OCCCN3C[C@@H]4C[C@H]3CO4)nc3c2CCN(c2cccc4cccc(C)c24)C3)C[C@@H]1CC#N` [Example 566, 2-[(2S)-1-(2-Fluoroprop-2-enoyl)-4-[7-(8-methyl-1-naphthyl)-2-[3-[(1S,4S)-2-oxa-5-azabicyclo[2.2.1]heptan-5-yl]propoxy]-6,8-dihydro-5H-pyrido[3,4-d]pyrimidin-4-yl]piperazin-2-yl]acetonitrile], at KRas G12C [1] (setting [3]), the POC result was “C (“C”>50% POC)”. Moreover, on KRas G12C [2], the IC50 was 0.0001 to 1 µM.
For `C=C(F)C(=O)N1CCN(c2nc(OC[C@@H]3C[C@@H](F)CN3C)nc3c2CCN(c2cccc4cccc(C)c24)C3)C[C@@H]1CC#N` [Example 560, 2-[(2S)-4-[2-[[(2S,4R)-4-Fluoro-1-methyl-pyrrolidin-2-yl]methoxy]-7-(8-methyl-1-naphthyl)-6,8-dihydro-5H-pyrido[3,4-d]pyrimidin-4-yl]-1-(2-fluoroprop-2-enoyl)piperazin-2-yl]acetonitrile], in that order: “C (“C”>50% POC)” and 0.0001 to 1 µM.
As to `C=CC(=O)N1CCN(c2nc(OCCCN3CCOCC3)nc3c2CCN(c2cc(O)cc4sc(C)nc24)C3)CC1` [Example 166, 1-[4-[7-(6-hydroxy-2-methyl-1,3-benzothiazol-4-yl)-2-(3-morpholinopropoxy)-6,8-dihydro-5H-pyrido[3,4-d]pyrimidin-4-yl]piperazin-1-yl]prop-2-en-1-one], the POC entry at KRas G12C [1] (5 µM) is “B (key: “A”≤25% POC; “B”>25% POC-≤50% POC; “C”>50% POC)”. Further, at KRas G12C [2], the IC50 was greater than 1 µM.
In the case of `C=CC(=O)N1CCN(c2nc(OC[C@@H]3CCCN3C)nc3c2CCN(c2cccc4ccccc24)C3)CC1CC#N` (stereo partly drawn) [Example 147, 2-[4-[2-[[(2S)-1-methylpyrrolidin-2-yl]methoxy]-7-(1-naphthyl)-6,8-dihydro-5H-pyrido[3,4-d]pyrimidin-4-yl]-1-prop-2-enoyl-piperazin-2-yl]acetonitrile], at KRas G12C [1] (setting [3]), the POC entry is reported as “C (“C”>50% POC)”. Also, the IC50 on KRas G12C [2] is 0.0001 to 1 µM.
In the same order, the values of `C=CC(=O)N1CCN(c2nc(OC[C@@H]3CCN(C)C3)nc3c2CCN(c2cccc4ccccc24)C3)CC1CC#N` (stereo partly drawn) [Example 177, 2-[4-[2-[[(3R)-1-methylpyrrolidin-3-yl]methoxy]-7-(1-naphthyl)-6,8-dihydro-5H-pyrido[3,4-d]pyrimidin-4-yl]-1-prop-2-enoyl-piperazin-2-yl]acetonitrile] are “C (“C”>50% POC)” and 0.0001 to 1 µM.
For `C=CC(=O)N1CCN(c2nc(OCCCN3CCOCC3)nc3c2CCN(c2c(C(F)(F)F)ccc4[nH]ncc24)C3)CC1` [Example 180, 1-[4-[2-(3-morpholinopropoxy)-7-[5-(trifluoromethyl)-1H-indazol-4-yl]-6,8-dihydro-5H-pyrido[3,4-d]pyrimidin-4-yl]piperazin-1-yl]prop-2-en-1-one], in that order: “C (“C”>50% POC)” and 0.0001 to 1 µM.
Regarding `C=CC(=O)N1CCN(c2nc(OC[C@@H]3CCCN3C)nc3c2CCN(c2c(C(C)C)ccc4[nH]ncc24)C3)CC1` [Example 248, (S)-1-(4-(7-(5-isopropyl-1H-indazol-4-yl)-2-((1-methylpyrrolidin-2-yl)methoxy)-5,6,7,8-tetrahydropyrido[3,4-d]pyrimidin-4-yl)piperazin-1-yl)prop-2-en-1-one], the POC entry at KRas G12C [1] (5 µM) was “C (key: “A”≤25% POC; “B”>25% POC-≤50% POC; “C”>50% POC)”. Also, the IC50 at KRas G12C [2] is greater than 1 µM.
For `C=C(F)C(=O)N1CCN(c2nc(OC[C@@H]3CCCN3C)nc3c2CCN(c2cccc4ccnc(C)c24)C3)C[C@@H]1CC#N` [Example 592], the POC result at KRas G12C [1] (setting [3]) was “C (“C”>50% POC)”. Further, the IC50 at KRas G12C [2] is greater than 1 µM.
For `C=CC(=O)N1CCN(c2nc(OC[C@@H]3CCCN3C)nc3c2CCN(c2c(C)c(O)cc4ccccc24)C3)CC1` [Example 175, (S)-1-(4-(7-(3-hydroxy-2-methylnaphthalen-1-yl)-2-((1-methylpyrrolidin-2-yl)methoxy)-5,6,7,8-tetrahydropyrido[3,4-d]pyrimidin-4-yl)piperazin-1-yl)prop-2-en-1-one], in that order: “C (“C”>50% POC)” and 0.0001 to 1 µM.
For `C=C(F)C(=O)N1CCN(c2nc(OC[C@@H]3C[C@@H](OC)CN3C)nc3c2CCN(c2cccc4cccc(Cl)c24)C3)C[C@@H]1CC#N` [Example 577, 2-[(2S)-4-[7-(8-Chloro-1-naphthyl)-2-[[(2S,4R)-4-methoxy-1-methyl-pyrrolidin-2-yl]methoxy]-6,8-dihydro-5H-pyrido[3,4-d]pyrimidin-4-yl]-1-(2-fluoroprop-2-enoyl)piperazin-2-yl] acetonitrile], in that order: “C (“C”>50% POC)” and 0.0001 to 1 µM.
In the same order, the values of `C=CC(=O)N1CCN(c2nc(OC[C@@H]3CCCN3C)nc3c2CCN(c2c(C)ccc4[nH]ncc24)C3)CC1CC#N` (stereo partly drawn) [Example 148, 2-[4-[7-(5-methyl-1H-indazol-4-yl)-2-[[(2S)-1-methylpyrrolidin-2-yl]methoxy]-6,8-dihydro-5H-pyrido[3,4-d]pyrimidin-4-yl]-1-prop-2-enoyl-piperazin-2-yl]acetonitrile] are “C (“C”>50% POC)” and 0.0001 to 1 µM.
As for `CN1CCC[C@H]1COc1nc2c(c(N3CCN(C(=O)/C=C/CN4CCC(F)(F)C4)[C@@H](CC#N)C3)n1)CCN(c1cccc(Cl)c1C(F)(F)F)C2` [Example 471, 2-[(2S)-4-[7-[3-chloro-2-(trifluoromethyl)phenyl]-2-[[(2S)-1-methylpyrrolidin-2-yl]methoxy]-6,8-dihydro-5H-pyrido[3,4-d]pyrimidin-4-yl]-1-[(E)-4-(3,3-difluoropyrrolidin-1-yl)but-2-enoyl]piperazin-2-yl]acetonitrile], the POC entry on KRas G12C [1] (setting [3]) is reported as “C (“C”>50% POC)”. Also, the half-inhibitory concentration (IC50) at KRas G12C [2] is greater than 1 µM.
For `C=CC(=O)N1CCN(c2nc(OC[C@@H]3CCCN3C)nc3c2CCN(c2ncccc2C(F)(F)F)C3)CC1CC#N` (stereo partly drawn) [Example 373, 2-(1-acryloyl-4-(2-(((S)-1-methylpyrrolidin-2-yl)methoxy)-7-(3-(trifluoromethyl)pyridin-2-yl)-5,6,7,8-tetrahydropyrido[3,4-d]pyrimidin-4-yl)piperazin-2-yl)acetonitrile], the POC result at KRas G12C [1] (setting [3]) is listed as “C (“C”>50% POC)”. The IC50 on KRas G12C [2] is greater than 1 µM.
Turning to `C=C(F)C(=O)N1CCN(c2nc(OC[C@@H]3CCCN3)nc3c2CCN(c2cccc4cccc(Cl)c24)C3)C[C@@H]1CC#N` [Example 571, 2-((S)-4-(7-(8-Chloronaphthalen-1-yl)-2-((S)-pyrrolidin-2-ylmethoxy)-5,6,7,8-tetrahydropyrido[3,4-d]pyrimidin-4-yl)-1-(2-fluoroacryloyl)piperazin-2-yl)acetonitrile], the POC result at KRas G12C [1] (setting [3]) is “C (“C”>50% POC)”. Besides, at KRas G12C [2], the IC50 was in the range of 0.0001 to 1 µM.
For `COC/C=C/C(=O)N1CCN(c2nc(OC[C@H]3CCCN3C)nc3c2CCN(c2cccc4cccc(C)c24)C3)C[C@@H]1CC#N` [Example 554, 2-[(2S)-1-[(E)-4-Methoxybut-2-enoyl]-4-[7-(8-methyl-1-naphthyl)-2-[[(2R)-1-methylpyrrolidin-2-yl]methoxy]-6,8-dihydro-5H-pyrido[3,4-d]pyrimidin-4-yl]piperazin-2-yl] acetonitrile], in that order: “C (“C”>50% POC)” and 0.0001 to 1 µM.
In the same order, the values of `C=CC(=O)N1CCN(c2nc(OCCCN3CC4CC4C3)nc3c2CCN(c2cc(O)cc4ccccc24)C3)CC1` (stereo not drawn) [Example 206, 1-(4-(2-(3-(3-azabicyclo[3.1.0]hexan-3-yl)propoxy)-7-(3-hydroxynaphthalen-1-yl)-5,6,7,8-tetrahydropyrido[3,4-d]pyrimidin-4-yl)piperazin-1-yl)prop-2-en-1-one] are “C (“C”>50% POC)” and 0.0001 to 1 µM.
As to `CC#CC(=O)N1CCN(c2nc(OC[C@@H]3CCCN3C)nc3c2CCN(c2cccc4ccccc24)C3)CC1CC#N` (stereo partly drawn) [Example 242, 2-(1-(but-2-ynoyl)-4-(2-(((S)-1-methylpyrrolidin-2-yl)methoxy)-7-(naphthalen-1-yl)-5,6,7,8-tetrahydropyrido[3,4-d]pyrimidin-4-yl)piperazin-2-yl)acetonitrile], on KRas G12C [1] (setting [3]), the POC entry was “C (“C”>50% POC)”. At KRas G12C [2], the IC50 fell in the range of 0.0001 to 1 µM.
